{"source": "patent US12397004B2", "about": "“Nasal delivery of low-dose aspirin for the treatment of neurodegenerative and lysosomal storage diseases” (Rush University Medical Center, priority 2018, dated 2025)", "key": {"[1]": {"tested_on": "adoptively-transferred EAE", "test": "Adoptive-transfer EAE in female SJL/J mice: clinical symptoms, grip test, rotorod after aspirin nebulization", "format": "in vivo", "settings": "0.2 and 0.4 mg/kg body wt/d", "experimental": "FIG. 2A-2C. Nebulization of low-dose aspirin reduced clinical symptoms of experimental allergic encephalomyetis (EAE) in female SJL/J mice. 2A) EAE was induced in 4-5 week old female SLJ/mice by adoptive transfer of myelin basic protein (MBP) primed T cells and from 9 days post-transfer (dpt), mice were treated with different doses of aspirin once daily for nebulization. Mice (n=6 per group in two independent experiments) were scored daily. On 16 dpt (acute phase), mice were examined for grip test (2B) and rotorod (2C). Results are presented as mean±SEM of six (6) mice per group. ^ap<0.001 vs control; ^bp<0.001 vs EAE by two-samples t-tests. Oral tablets of baby aspirin with a standard dosage of 81 mg were solubilized in hot double distilled water and cooled to room temperature. This liquid formulation was made fresh every week. In mice, an aspirin dose of 1 mg/kg body wt/d aspirin is equivalent to “Baby Aspirin” (81 mg tablet per adult). A Buxco Inhalation Tower All-In-One Controller by DSI™ was used for air supply for nebulization (FIG. 1A). A whole body chamber was fitted with an Aeroneb® Ultrasonic Nebulizer (FIG. 1B) supplied with air from a Buxco bias flow pump. Mice were allowed to nebulize aspirin at doses of […] mg/kg body wt/d (solubilized in a volume of 100 μl double-distilled water/mouse) for 3 min. Therefore, control group of mice also received 100 μl water by nebulization. Experimental allergic encephalomyelitis (EAE) is an animal model of MS, the most common human demyelinating disease. RR-EAE was induced in female SJL/J mice by adoptive transfer of myelin […] (MBP) primed T cells (FIG. 2A). As expected, induction of EAE reduced grip test (FIG. 2B) and rotorod (FIG. 2C) performances of mice. Mice were then nebulized with aspirin (0.2 and 0.4 mg/kg body wt/d in a volume of 100 μl/mouse) from 9 days post-transfer (dpt) of MBP-primed T cells. The control EAE group were treated with only water via nebulization. A dose of 0.2 mg/kg body wt/d aspirin equates to approximately 16 mg per adult. Clinical symptoms were monitored every day until 38 dpt. […]"}, "CD4+Foxp3+ Tregs": {"tested_on": "CD4+Foxp3+ Tregs", "test": "FACS of lymph node cells of EAE mice for Foxp3 and CD4 (Tregs)", "format": "in vivo, female SJL/J mice", "settings": "0.2 and 0.4 mg/kg body wt/d, nebulization from 9 dpt, 16 dpt", "experimental": "FIG. 3A-3B. Nebulization of low-dose aspirin improves regulatory T cells (Tregs) in vivo in mice with adoptive transfer EAE. Lymph node cells of control, EAE (16 dpt) and low doses of aspirin-treated EAE mice (16 dpt receiving 0.2 and 0.4 mg/kg body wt/d aspirin in 100 μl water from 9 dpt via nebulization) were analyzed by fluorescence activated cell sorting (FACS) for Foxp3 and CD4 (3A). The mean fluorescence intensity (MFI) of Foxp3 in CD4+ population was calculated by using CellQuest software (3B). Data were mean±SEM of four mice per group. ^ap<0.001 vs control; ^bp<0.001 vs EAE by two-samples t-tests. Tregs are most important immunomodulatory subtype of T lymphocytes (Sakaguchi, 2005; Sakaguchi and Powrie, 2007) that are known to suppress EAE and MS. Nebulization of aspirin was further investigated to determine whether nebulization was capable of enriching Tregs in vivo in EAE mice. EAE mice receiving aspirin nebulization from 9 dpt were sacrificed on 16 dpt, followed by analysis of Tregs in lymph node cells (LNC). Foxp3 protein is currently considered as the most important marker of Tregs and by dual fluorescence-activated cell sorting (FACS) staining, we found decrease in CD4^+Foxp3^+ Tregs in LNC of EAE mice (FIG. 3A-B). However, nebulization of EAE mice with aspirin at both 0.2 and 0.4 mg/kg body wt/d doses protected CD4+Foxp3+ Tregs (FIG. 3A-B)."}, "FAD5× mouse model of AD [2]": {"tested_on": "FAD5× mouse model of AD", "test": "Barnes maze, hippocampus-dependent spatial behavior in FAD5× mice", "format": "in vivo", "settings": "0.2 and 0.4 mg/kg body wt/d, nebulization, 30 days", "experimental": "FIG. 5A-5E. Nebulization of low-dose aspirin protects memory in the FAD5× mouse model of AD. Six to seven-month old FAD5× mice were treated with low doses (0.2 and 0.4 mg/kg body wt/d) of aspirin via nebulization. After 30 days of treatment, hippocampus-dependent spatial behavior was monitored by Barnes maze. 5A) Representative heat maps summarizing the overall activity of mice on the apparatus recorded with a Noldus camera and visualized by Ethovision XT software. 5B) Latency and 5C) number of errors made by all groups of mice. Context-dependent hippocampal behavior was analyzed by T-maze. 5D) Number of positive turns and 5E) number of negative turns of all groups of mice on an appetitive T-maze conditioning task were manually recorded. Results are presented as mean±SEM of 5 mice per group. ^ap<0.001 vs non-Tg; ^bp<0.001 vs FAD5×; ^cp<0.01 vs non-Tg; ^dp<0.05 vs FAD5×. A Buxco Inhalation Tower All-In-One Controller by DSI™ was used for air supply for nebulization (FIG. 1A). A whole body chamber was fitted with an Aeroneb® Ultrasonic Nebulizer (FIG. 1B) supplied with air from a Buxco bias flow pump. […] Hippocampus-dependent spatial learning and cognitive behavior can be reliably monitored in the Barnes maze test (Roy et al., 2013; Roy et al., 2015)."}, "myelin": {"tested_on": "myelin", "test": "Demyelination in spinal cord of EAE mice (MBP immunostaining, Luxol fast blue)", "format": "in vivo, female SJL/J mice", "settings": "0.2 and 0.4 mg/kg body wt/d, nebulization from onset of acute phase, MBP and LFB staining", "experimental": "FIG. 8A-8C: Nebulization of very low-dose aspirin protects myelin in experimental autoimmune encephalomyelitis (EAE), a mouse model of multiple sclerosis. EAE was induced in female SJL/J mice (4-6 week old) by adoptive transfer of MBP-primed T cells. Mice were treated with 0.2 mg/kg body wt/d and 0.4 mg/kg body wt/d aspirin via nebulization using the Buxco Inhalation Tower from the onset of acute phase. A) Spinal cord sections were immunostained with MBP (red). B) Sections were also stained with Luxol fast blue. Digital images were collected under bright field setting using a 40× objective. Demyelination was represented quantitatively (C). Data are expressed as the mean±SEM of five different mice per group. […]. EAE is an animal model of human demyelinating disease multiple sclerosis (MS). It was determined whether aspirin nebulization decreased demyelination in mice with EAE. To examine demyelination, spinal cord sections were stained with MBP, a major component of myelin. Moreover, spinal cord sections were also stained with luxol fast blue (LFB), which reacts with myelin. As evident from MBP immunostaining (FIG. 8A) and LFB staining (FIG. 8B), there were widespread demyelination zones in the white matter in mice with EAE."}, "FAD5× mouse model of AD [3]": {"tested_on": "FAD5× mouse model of AD", "test": "T-maze, context-dependent hippocampal behavior in FAD5× mice", "format": "in vivo", "settings": "0.2 and 0.4 mg/kg body wt/d, nebulization, 30 days", "experimental": "FIG. 5A-5E. Nebulization of low-dose aspirin protects memory in the FAD5× mouse model of AD. Six to seven-month old FAD5× mice were treated with low doses (0.2 and 0.4 mg/kg body wt/d) of aspirin via nebulization. After 30 days of treatment, hippocampus-dependent spatial behavior was monitored by Barnes maze. 5A) Representative heat maps summarizing the overall activity of mice on the apparatus recorded with a Noldus camera and visualized by Ethovision XT software. 5B) Latency and 5C) number of errors made by all groups of mice. Context-dependent hippocampal behavior was analyzed by T-maze. 5D) Number of positive turns and 5E) number of negative turns of all groups of mice on an appetitive T-maze conditioning task were manually recorded. Results are presented as mean±SEM of 5 mice per group. ^ap<0.001 vs non-Tg; ^bp<0.001 vs FAD5×; ^cp<0.01 vs non-Tg; ^dp<0.05 vs FAD5×. T-maze apparatus monitors context-dependent hippocampal behavior, which may be a better index to test cognition in mice. […] However, similar to that observed with Barnes maze, nebulization of low doses of aspirin improved the performance of FAD5× mice on T maze as evident by increase in positive turns (FIG. 5D) and decrease in negative turns (FIG. 5E)."}, "FAD5× mouse model of AD [4]": {"tested_on": "FAD5× mouse model of AD", "settings": "oral, 2 mg/kg body wt/d; cited from earlier work"}, "[5]": {"tested_on": "Aβ immunoreactive plaques", "test": "DAB immunostaining (6E10) of hippocampal sections, plaque load in FAD5× mice", "format": "in vivo", "settings": "0.2 and 0.4 mg/kg body wt/d, nebulization, 30 days, 6E10 DAB staining", "experimental": "FIG. 7A-7B: Nebulization of very low-dose aspirin lowers cerebral plaque load in an animal model of AD. Six-month old FAD5× transgenic mice were treated with 0.2 mg/kg body wt/d and 0.4 mg/kg body wt/d aspirin via nebulization using the Buxco Inhalation Tower. After 30 days of treatment, A) diaminobenzidine (DAB) staining was performed in hippocampal sections using 6E10 antibody. B) Quantification of number of plaques in the hippocampus relative to nontransgenic. Two sections (two images per section) of each of five mice per group were used in counting. All data are represented as mean±SEM. ^ap<0.001 vs non-Tg; ^bp<0.001 vs. FAD5×. Next, in order to check the amyloid deposition in the brain, hippocampal sections were labeled with 6E10 antibody by diaminobenzidine immunostaining. Parallel to the immunoblot results, there was marked abundance of AP immunoreactive plaques in the hippocampus of Tg mice (FIG. 7A-B)."}, "CD4+IL-17+ T cells": {"tested_on": "CD4+IL-17+ T cells", "test": "FACS of lymph node cells of EAE mice for IL-17 and CD4 (Th17 response)", "format": "in vivo, female SJL/J mice", "settings": "0.2 and 0.4 mg/kg body wt/d, nebulization from 9 dpt, 16 dpt", "experimental": "FIG. 4A-4B. Nebulization of low-dose aspirin suppresses the Th17 response in vivo in mice with adoptive transfer EAE. Lymph node cells of control, EAE (16 dpt) and low doses of aspirin-treated EAE mice (16 dpt receiving 0.2 and 0.4 mg/kg body wt/d aspiring in 100 μl water from 9 dpt via nebulization) were analyzed by FACS for IL-17 and CD4 (4A). The MFI of IL-17 in CD4+ population was calculated by using CellQuest software (4B). Data were mean±SEM of four mice per group. ^ap<0.001 vs control; ^bp<0.001 vs EAE by two-samples t-tests. T helper cell 17 (Th17) cells are considered to play a more important role than Th1 cells in the disease process of EAE and MS (El-behi et al., 2010). Since aspirin nebulization enriched Tregs, aspirin nebulization was tested to determine if aspirin nebulization was capable of suppressing Th17 response in vivo in EAE mice. Th17 cells are characterized by expression of IL-17 (Shi et al., 2008). […] However, nebulization of EAE mice with aspirin led to the suppression of the CD4+IL-17+ T cell population in LNC (FIG. 4A). This is also corroborated by mean fluorescence intensity (MFI) analysis of IL-17 within the CD4+ population (FIG. […])."}, "Aβ": {"tested_on": "Aβ", "test": "Western blot of Aβ in hippocampal extracts of FAD5× mice (6E10 and 82E1 antibodies)", "format": "in vivo", "settings": "0.2 and 0.4 mg/kg body weight/d, nebulization, 30 days, immunoblot", "experimental": "FIG. 6A-6D: Nebulization of very low-dose aspirin lowers cerebral plaque load in an animal model of AD. Six-month old FAD5× transgenic mice were treated with 0.2 mg/kg body wt/d and 0.4 mg/kg body wt/d aspirin via nebulization using the Buxco Inhalation Tower. After 30 days of treatment, Aβ levels were monitored in hippocampal extracts by Western blot analysis (A & C) and densitometric analysis (B & D) using 6E10 (A & B) and 82E1 (C & D) antibodies. Actin was used as loading control. Results are presented as mean±SEM of 4 mice per group. ^ap<0.001 vs non-Tg; ^bp<0.001 vs. FAD5×. To explore whether nebulization of very low-dose aspirin was capable of reducing the amyloid load in the hippocampus, the most affected brain region in AD, of FAD5× (Tg) mice, the following experiment was performed. […] The 82E1 is known to detect both soluble and fibrillar human Aβ to a similar degree."}, "[6]": {"settings": "nebulization from 9 dpt, tested 16 dpt"}}, "data": [{"smiles": "CC(=O)Oc1ccccc1C(=O)O", "note": "[aspirin, acetylsalicylic acid]", "values": [{"measurement": "grip test activity of EAE mice", "setting": "[1]; [6]", "value": "significantly improved"}, {"measurement": "rotorod activity of EAE mice", "setting": "[1]; [6]", "value": "significantly improved"}, {"measurement": "clinical manifestations of adoptively-transferred EAE", "setting": "[1]; nebulization once daily from 9 dpt, monitored until 38 dpt", "value": "strongly inhibited"}, {"measurement": "CD4+Foxp3+ Tregs in lymph node cells", "setting": "CD4+Foxp3+ Tregs", "value": "protected"}, {"measurement": "Barnes maze errors", "setting": "FAD5× mouse model of AD [2]", "value": "decreased"}, {"measurement": "Barnes maze latency", "setting": "FAD5× mouse model of AD [2]", "value": "significantly improved"}, {"measurement": "loss of myelin in the spinal cord (demyelination)", "setting": "myelin", "value": "prevented the loss of myelin"}, {"measurement": "T-maze negative turns", "setting": "FAD5× mouse model of AD [3]", "value": "decrease"}, {"measurement": "T-maze positive turns", "setting": "FAD5× mouse model of AD [3]", "value": "increase"}, {"measurement": "memory and learning", "setting": "FAD5× mouse model of AD [4]", "value": "protect memory and learning"}, {"measurement": "plaque load in the hippocampus", "setting": "[5]", "value": "decreasing the plaque load"}, {"measurement": "CD4+IL-17+ T cell population in lymph node cells", "setting": "CD4+IL-17+ T cells", "value": "suppression"}, {"measurement": "level of Aβ in the hippocampus, 6E10 antibody", "setting": "Aβ", "value": "significantly reduced"}]}]}
